US6525001B1, “Substituted pyrimidine and pyridine herbicides” (Mid-American Commercialization Corporation, priority 1997, dated 2003)

How the values were obtained:
Experiment in all cases: Test B pre-/postemergence
Format in all cases: in vivo
Set-up in all cases: key: 0 is no effect; 10 is complete control
[1] = test system: bedstraw (Galium aparine)
How it was run: (§1)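 Response scores run from 0, meaning no effect, to 10, meaning complete control, assigned by eye relative to controls twelve to sixteen days after spraying. Treatment was both preemergence on planted seed and postemergence on plants at the 1- to 4-leaf stage.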

[2] = test system: blackgrass (Alopecurus myosuroides)
How it was run: as §1

[3] = test system: broadleaf signalgrass (Brachiaria decumbens)
How it was run: as §1

[4] = test system: cocklebur (Xanthium strumarium)
How it was run: as §1

[5] = test system: corn (Zea mays)
How it was run: as §1

[6] = test system: crabgrass (Digitaria sanguinalis)
How it was run: as §1

[7] = test system: giant foxtail (Setaria faberii)
How it was run: as §1

[8] = test system: momingglory (Ipomoea hederacea)
How it was run: as §1

[9] = test system: pigweed (Amaranthus retroflexus)
How it was run: as §1

[10] = test system: purple nutsedge (Cyperus rotundus)
How it was run: as §1

[11] = test system: sugar beet (Beta vulgaris)
How it was run: as §1

[12] = test system: velvetleaf (Abutilon theophrasti)
How it was run: as §1

[13] = test system: wheat (Triticum aestivum)
How it was run: as §1

[14] = test system: wild oat (Avena fatua)
How it was run: as §1

[15] = Preemergence, Rate 62 g/ha, scale of 0 to 10

## Cc1cnc(-n2ccc(C(F)(F)F)n2)nc1C(=O)c1cccc(C(F)(F)F)c1 [Compound 59]
[1]; [15]
  Plant response rating, Bedstraw: 3
[1]; Rate 62 g/ha, Postemergence
  Bedstraw plant response rating: 7
[1]; Rate 125 g/ha, Postemergence
  Bedstraw plant response rating: 7
[1]; Rate 125 g/ha, Preemergence
  Plant response rating, Bedstraw: 6
[1]; Rate 250 g/ha, Postemergence
  Plant response rating, Bedstraw: 8
[1]; Rate 250 g/ha, Preemergence
  Plant response rating, Bedstraw: 6
[1]; Rate 500 g/ha, Postemergence
  Plant response rating, Bedstraw: 9
[1]; Rate 500 g/ha, Preemergence
  Plant response rating, Bedstraw: 8
[2]; [15]
  Plant response rating, Blackgrass: 2
[2]; Rate 62 g/ha, Postemergence
  Blackgrass plant response rating: 2
[2]; Rate 125 g/ha, Postemergence
  Blackgrass plant response rating: 3
[2]; Rate 125 g/ha, Preemergence
  Plant response rating, Blackgrass: 3
[2]; Rate 250 g/ha, Postemergence
  Plant response rating, Blackgrass: 5
[2]; Rate 250 g/ha, Preemergence
  Plant response rating, Blackgrass: 7
[2]; Rate 500 g/ha, Postemergence
  Plant response rating, Blackgrass: 6
[2]; Rate 500 g/ha, Preemergence
  Plant response rating, Blackgrass: 9
[3]; Rate 62 g/ha, Postemergence
  B. signalgrass plant response rating: 2
[3]; Rate 62 g/ha, Preemergence
  B. signalgrass plant response rating: 7
[3]; Rate 125 g/ha, Postemergence
  B. signalgrass plant response rating: 2
[3]; Rate 125 g/ha, Preemergence
  Plant response rating, B. signalgrass: 9
[3]; Rate 250 g/ha, Postemergence
  Plant response rating, B. signalgrass: 2
[3]; Rate 250 g/ha, Preemergence
  Plant response rating, B. signalgrass: 9
[3]; Rate 500 g/ha, Postemergence
  Plant response rating, B. signalgrass: 3
[3]; Rate 500 g/ha, Preemergence
  Plant response rating, B. signalgrass: 9
[4]; [15]
  Plant response rating, Cocklebur: 0
[4]; Rate 62 g/ha, Postemergence
  Cocklebur plant response rating: 4
[4]; Rate 125 g/ha, Postemergence
  Cocklebur plant response rating: 7
[4]; Rate 125 g/ha, Preemergence
  Plant response rating, Cocklebur: 2
[4]; Rate 250 g/ha, Postemergence
  Plant response rating, Cocklebur: 7
[4]; Rate 500 g/ha, Postemergence
  Plant response rating, Cocklebur: 8
[4]; Rate 500 g/ha, Preemergence
  Plant response rating, Cocklebur: 2
[5]; [15]
  Plant response rating, Corn: 0
[5]; Rate 62 g/ha, Postemergence
  Corn plant response rating: 1
[5]; Rate 125 g/ha, Postemergence
  Corn plant response rating: 2
[5]; Rate 125 g/ha, Preemergence
  Plant response rating, Corn: 1
[5]; Rate 250 g/ha, Postemergence
  Plant response rating, Corn: 3
[5]; Rate 250 g/ha, Preemergence
  Plant response rating, Corn: 1
[5]; Rate 500 g/ha, Postemergence
  Plant response rating, Corn: 4
[5]; Rate 500 g/ha, Preemergence
  Plant response rating, Corn: 3
[6]; [15]
  Plant response rating, Crabgrass: 8
[6]; Rate 62 g/ha, Postemergence
  Crabgrass plant response rating: 6
[6]; Rate 125 g/ha, Postemergence
  Crabgrass plant response rating: 6
[6]; Rate 125 g/ha, Preemergence
  Plant response rating, Crabgrass: 9
[6]; Rate 250 g/ha, Postemergence
  Plant response rating, Crabgrass: 8
[6]; Rate 250 g/ha, Preemergence
  Plant response rating, Crabgrass: 10
[6]; Rate 500 g/ha, Postemergence
  Plant response rating, Crabgrass: 9
[6]; Rate 500 g/ha, Preemergence
  Plant response rating, Crabgrass: 10
[7]; [15]
  Plant response rating, Giant foxtail: 8
[7]; Rate 62 g/ha, Postemergence
  Giant foxtail plant response rating: 6
[7]; Rate 125 g/ha, Postemergence
  Giant foxtail plant response rating: 6
[7]; Rate 125 g/ha, Preemergence
  Plant response rating, Giant foxtail: 10
[7]; Rate 250 g/ha, Postemergence
  Plant response rating, Giant foxtail: 8
[7]; Rate 250 g/ha, Preemergence
  Plant response rating, Giant foxtail: 10
[7]; Rate 500 g/ha, Postemergence
  Plant response rating, Giant foxtail: 9
[7]; Rate 500 g/ha, Preemergence
  Plant response rating, Giant foxtail: 10
[8]; [15]
  Plant response rating, Morningglory: 6
[8]; Rate 62 g/ha, Postemergence
  Morningglory plant response rating: 7
[8]; Rate 125 g/ha, Preemergence
  Plant response rating, Morningglory: 6
[8]; Rate 250 g/ha, Postemergence
  Plant response rating, Morningglory: 10
[8]; Rate 250 g/ha, Preemergence
  Plant response rating, Morningglory: 10
[8]; Rate 500 g/ha, Postemergence
  Plant response rating, Morningglory: 10
[8]; Rate 500 g/ha, Preemergence
  Plant response rating, Morningglory: 10
[9]; [15]
  Plant response rating, Redroot pigweed: 8
[9]; Rate 62 g/ha, Postemergence
  Redroot pigweed plant response rating: 8
[9]; Rate 125 g/ha, Postemergence
  Redroot pigweed plant response rating: 8
[9]; Rate 125 g/ha, Preemergence
  Plant response rating, Redroot pigweed: 10
[9]; Rate 250 g/ha, Postemergence
  Plant response rating, Redroot pigweed: 8
[9]; Rate 250 g/ha, Preemergence
  Plant response rating, Redroot pigweed: 10
[9]; Rate 500 g/ha, Postemergence
  Plant response rating, Redroot pigweed: 9
[9]; Rate 500 g/ha, Preemergence
  Plant response rating, Redroot pigweed: 10
[10]; [15]
  Plant response rating, Nutsedge: 0
[10]; Rate 62 g/ha, Postemergence
  Nutsedge plant response rating: 0
[10]; Rate 125 g/ha, Postemergence
  Nutsedge plant response rating: 0
[10]; Rate 125 g/ha, Preemergence
  Plant response rating, Nutsedge: 0
[10]; Rate 250 g/ha, Postemergence
  Plant response rating, Nutsedge: 0
[10]; Rate 250 g/ha, Preemergence
  Plant response rating, Nutsedge: 0
[10]; Rate 500 g/ha, Postemergence
  Plant response rating, Nutsedge: 0
[10]; Rate 500 g/ha, Preemergence
  Plant response rating, Nutsedge: 0
[11]; [15]
  Plant response rating, Sugarbeets: 10
[11]; Rate 62 g/ha, Postemergence
  Sugarbeets plant response rating: 9
[11]; Rate 125 g/ha, Postemergence
  Sugarbeets plant response rating: 9
[11]; Rate 125 g/ha, Preemergence
  Plant response rating, Sugarbeets: 10
[11]; Rate 250 g/ha, Postemergence
  Plant response rating, Sugarbeets: 9
[11]; Rate 250 g/ha, Preemergence
  Plant response rating, Sugarbeets: 10
[11]; Rate 500 g/ha, Postemergence
  Plant response rating, Sugarbeets: 9
[11]; Rate 500 g/ha, Preemergence
  Plant response rating, Sugarbeets: 10
[12]; [15]
  Plant response rating, Velvetleaf: 7
[12]; Rate 62 g/ha, Postemergence
  Velvetleaf plant response rating: 6
[12]; Rate 125 g/ha, Postemergence
  Velvetleaf plant response rating: 7
[12]; Rate 125 g/ha, Preemergence
  Plant response rating, Velvetleaf: 7
[12]; Rate 250 g/ha, Postemergence
  Plant response rating, Velvetleaf: 7
[12]; Rate 250 g/ha, Preemergence
  Plant response rating, Velvetleaf: 9
[12]; Rate 500 g/ha, Postemergence
  Plant response rating, Velvetleaf: 8
[12]; Rate 500 g/ha, Preemergence
  Plant response rating, Velvetleaf: 10
[13]; [15]
  Plant response rating, Wheat: 1
[13]; Rate 62 g/ha, Postemergence
  Wheat plant response rating: 1
[13]; Rate 125 g/ha, Postemergence
  Wheat plant response rating: 2
[13]; Rate 125 g/ha, Preemergence
  Plant response rating, Wheat: 2
[13]; Rate 250 g/ha, Postemergence
  Plant response rating, Wheat: 2
[13]; Rate 250 g/ha, Preemergence
  Plant response rating, Wheat: 3
[13]; Rate 500 g/ha, Postemergence
  Plant response rating, Wheat: 3
[13]; Rate 500 g/ha, Preemergence
  Plant response rating, Wheat: 5
[14]; [15]
  Plant response rating, Wild oats: 7
[14]; Rate 62 g/ha, Postemergence
  Wild oats plant response rating: 1
[14]; Rate 125 g/ha, Postemergence
  Wild oats plant response rating: 1
[14]; Rate 125 g/ha, Preemergence
  Plant response rating, Wild oats: 8
[14]; Rate 250 g/ha, Postemergence
  Plant response rating, Wild oats: 3
[14]; Rate 250 g/ha, Preemergence
  Plant response rating, Wild oats: 9
[14]; Rate 500 g/ha, Postemergence
  Plant response rating, Wild oats: 6
[14]; Rate 500 g/ha, Preemergence
  Plant response rating, Wild oats: 9
